Data from ChEMBL document CHEMBL4602687, “Dual Binding to Orthosteric and Allosteric Sites Enhances the Anticancer Activity of a TRAP1-Targeting Drug” (J Med Chem, 2020).
Residue numbers refer to the chain shown, from its start. Calls of active or inactive are those of the source. No cut-off for these calls is given here.

How the values were obtained:
[1] = tested on: T1, Heat shock protein 75 kDa, mitochondrial (Homo sapiens), Q12931 [E115Q]; assay: Inhibition of recombinant […] human TRAP1 E115Q mutant ATPase activity expressed in Escherichia coli BL21 (DE3) up to 20 uM preincubated for 0.5 hrs followed by ATP addition and measured after 3 hrs by PiColorLock Gold reagent based colorimetric assay
T1 sequence (whole entry): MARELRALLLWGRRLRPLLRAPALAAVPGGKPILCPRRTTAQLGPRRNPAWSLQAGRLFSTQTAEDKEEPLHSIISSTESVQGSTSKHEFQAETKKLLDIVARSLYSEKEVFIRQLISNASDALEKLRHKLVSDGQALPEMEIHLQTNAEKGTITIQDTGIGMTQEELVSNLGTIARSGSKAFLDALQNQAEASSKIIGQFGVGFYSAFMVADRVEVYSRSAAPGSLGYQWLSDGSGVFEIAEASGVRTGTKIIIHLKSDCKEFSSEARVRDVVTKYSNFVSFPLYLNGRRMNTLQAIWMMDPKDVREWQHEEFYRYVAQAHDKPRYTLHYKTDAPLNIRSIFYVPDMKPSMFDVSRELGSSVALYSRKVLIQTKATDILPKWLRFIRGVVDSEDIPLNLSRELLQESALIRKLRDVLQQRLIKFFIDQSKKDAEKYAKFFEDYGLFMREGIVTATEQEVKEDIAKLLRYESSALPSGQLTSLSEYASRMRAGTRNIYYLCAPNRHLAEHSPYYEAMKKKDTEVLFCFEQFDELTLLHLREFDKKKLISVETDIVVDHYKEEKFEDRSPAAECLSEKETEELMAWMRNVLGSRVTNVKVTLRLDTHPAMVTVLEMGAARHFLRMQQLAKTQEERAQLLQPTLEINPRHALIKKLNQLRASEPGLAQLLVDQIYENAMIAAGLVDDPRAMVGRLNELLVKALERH

[2] = tested on: NCI-H460; assay: Antitumor activity against human NCI-H460 cells xenografted in nude mouse assessed as tumor growth inhibition at 5 mg/kg, ip administered daily; format: functional, organism-based
[3] = species: Homo sapiens; assay: Inhibition of recombinant full-length human TRAP1 W585/W4F mutant expressed in Escherichia coli BL21 (DE3) assessed as intrinsic fluorescence quenching of tryptophan residues at 10 uM measured after 1 hr by fluorescence spectrophotometric method
[4] = target: T2, Heat shock protein 75 kDa, mitochondrial (Homo sapiens) (UniProt Q12931); assay: Allosteric modulation of recombinant wild-type human TRAP1 ATPase activity expressed in Escherichia coli BL21 (DE3) assessed as increase in substrate Km at 5 uM preincubated for 0.5 hrs followed by varying levels of ATP addition and measured after 3 hrs using PiColorLock Gold reagent by colorimetric assay-based Lineweaver-Burk plot analysis relative to control
T2 sequence (whole entry): T1 sequence (whole entry) with Q115E

[5] = tested on: T3, Heat shock protein 75 kDa, mitochondrial (Homo sapiens), Q12931 [R114E,R402Q]; assay: Stimulation of recombinant […] human TRAP1 R114E/R402Q mutant ATPase activity expressed in Escherichia coli BL21 (DE3) up to 20 uM preincubated for 0.5 hrs followed by ATP addition and measured after 3 hrs by PiColorLock Gold reagent based colorimetric assay
T3 sequence (whole entry): T1 sequence (whole entry) with R114E, Q115E, R402Q

Nc1ncnc2c1nc(Sc1cc3c(cc1I)OCO3)n2CCCCCCCCCC[P+](c1ccccc1)(c1ccccc1)c1ccccc1
inhibition [1]: Active
TGI [2]: Active
inhibition [3]: Active
fold change (FC) [4]: 3
Activity [5]: inactive
